Here are results for three compounds from ChEMBL document CHEMBL1153185, “Two novel neo-clerodane diterpenoids from Scutellaria barbata” (Bioorg Med Chem Lett, 2010).

Where a name gives a salt, the structure may show the parent alone. Calls of active or inactive are those of the source. The calls are words filed in the database; no cut-off is given here.

The term IC50 denotes the concentration at which inhibition is half-maximal.

Common to all, as to type: functional, cell-based
Test [1] has as its system HL-60. Kind of test: Cytotoxicity against human HL60 cells by MTT assay.
Test [2] deals with Lewis lung carcinoma. As to the kind of experiment: Cytotoxicity against mouse LLC by MTT assay. A general note: Formazan colour is commonly taken as a measure of viable cells.
Test [3] concerns MCF7. Kind of test: Cytotoxicity against human MCF7 cells by MTT assay.

As to `COc1cccc2c1C(=O)c1c(O)c3c(c(O)c1C2=O)C[C@@](O)(C(=O)CO)C[C@@H]3O[C@H]1C[C@H](N)[C@H](O)[C@H](C)O1` [DOXORUBICIN HYDROCHLORIDE], 0.18 µM corresponded to half-maximal inhibition in test [1] (IC50).

On to `C[C@@]12[C@@H](OC(=O)c3cccnc3)[C@H](OC(=O)c3ccccc3)[C@](C)(O)[C@](C)(/C=C/C3=CC(=O)OC3)[C@H]1CC=C[C@]2(C)O`, for which the outcome in test [2], in test [1] and in test [3] was inactive.

With `CC(=O)O[C@@H](CC1=CC(=O)OC1)[C@]1(C)[C@H]2CCC=C(C)[C@]2(C)[C@@H](OC(=O)c2cccnc2)[C@H](OC(=O)c2ccccc2)[C@]1(C)O` [BARBATELLARINES B], half-maximal inhibition in test [1] (IC50) required 41.4 µM.
